Data on five molecules can be found in patent US8071786B2, “Indole compounds useful as serotonin selective agents” (Galenea Corp., priority 2005, dated 2011).

Data set [1] deals with T1, 5-HT2A (Homo sapiens, UniProt P28223). Briefly: Receptor binding, competition binding assay. Here is the method:
(§1) For initial screens, a 10 micromolar concentration of each compound (dissolved in 10% DMSO) was incubated with the appropriate receptor preparation and percent inhibition determined for duplicate determinations each performed in duplicate. Where >50% inhibition of specific binding was measured, Ki determinations were then measured by competition binding assays in which concentrations from 1 to 100,000 nM were incubated in duplicate. For each Ki value the data represent the mean+/−SD of computer-derived estimates for N=4 separate determinations, as described (Rothman, R., Baumann, M., Savage, J., Rauser, L., McBride, A., Hufeisen, S., Roth, B. L. “Evidence for Possible Involvement of 5-HT2B Receptors in the Cardiac Valvulopathy Associated with Fenfluramine and other Serotonergic Medications” Circulation 2000, 102, 2836; Roth, B. L., Shoham, M., Choudhary, M., Khan, N. “Identification of Conserved Aromatic Residues Essential for Agonist Binding and Second Messenger Production at 5-Hydroxytryptamine 2A Receptors” Mol. Pharmacol. 1997, 52, 259; Roth, B. L., Choudhary, M., Khan, N., Uluer, A. “High-affinity Agonist Binding is not Sufficient for Agonist Efficacy at 5-Hydroxytryptamine 2A Receptors: Evidence in Favor of a Modified Ternary Complex Model” J. Pharmacol. Exp. Ther. 1997, 280, 576).
(§2) Receptor binding (Ki) in nM. When the standard deviation is given N≧3.

In data set [2] the target is T2, 5-HT2B (Homo sapiens, UniProt P41595). Briefly: Receptor binding, competition binding assay. Here is the method: as §1, §2
T2 sequence (P41595 whole entry): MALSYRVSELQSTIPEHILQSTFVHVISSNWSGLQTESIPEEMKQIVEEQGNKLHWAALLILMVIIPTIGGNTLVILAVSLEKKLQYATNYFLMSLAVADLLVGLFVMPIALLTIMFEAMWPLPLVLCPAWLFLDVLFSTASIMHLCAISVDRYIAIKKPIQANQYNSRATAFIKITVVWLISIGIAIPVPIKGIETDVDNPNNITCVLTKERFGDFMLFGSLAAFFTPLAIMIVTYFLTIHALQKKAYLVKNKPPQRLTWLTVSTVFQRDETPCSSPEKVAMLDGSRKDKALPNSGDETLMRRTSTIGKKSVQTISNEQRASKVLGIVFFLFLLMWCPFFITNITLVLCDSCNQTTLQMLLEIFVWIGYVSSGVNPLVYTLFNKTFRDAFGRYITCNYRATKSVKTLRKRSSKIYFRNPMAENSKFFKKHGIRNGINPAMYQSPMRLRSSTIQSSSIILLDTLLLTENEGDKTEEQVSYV
For the next data set, the target named is T3, 5-HT2C (Homo sapiens, UniProt P28335).
T3 sequence (P28335 33-458): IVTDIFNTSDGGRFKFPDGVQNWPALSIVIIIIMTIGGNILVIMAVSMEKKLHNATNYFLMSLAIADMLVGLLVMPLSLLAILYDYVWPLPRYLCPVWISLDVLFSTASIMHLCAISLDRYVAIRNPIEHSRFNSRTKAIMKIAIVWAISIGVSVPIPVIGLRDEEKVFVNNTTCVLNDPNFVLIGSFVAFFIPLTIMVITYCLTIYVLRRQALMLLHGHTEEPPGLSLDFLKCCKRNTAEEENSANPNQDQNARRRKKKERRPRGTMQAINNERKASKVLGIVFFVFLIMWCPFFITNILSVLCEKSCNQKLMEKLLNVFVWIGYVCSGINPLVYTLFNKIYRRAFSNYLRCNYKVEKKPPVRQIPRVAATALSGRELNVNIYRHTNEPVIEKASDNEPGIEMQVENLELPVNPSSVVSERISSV
The data set is described as follows: Receptor binding, competition binding assay. Here is the method:
as §1, §2

The next data set deals with T4, human 5-HT2C-INI (Homo sapiens, UniProt P28335).
T4 construct: expressed in transfected cells
T4 sequence (P28335 33-458): T3 sequence (P28335 33-458)
Briefly: Phosphoinositide hydrolysis functional assay. The data set is classed as cell-based. The settings on record: for EC50: activation of phosphoinositide hydrolysis, stably expressed receptor; for Emax: value in brackets, read-out: percent Vmax relative to serotonin at 100%, 5-HT2C (converted). The method, then: (§3) Phosphoinositide hydrolysis assays were performed with stably (5-HT2A, 5-HT2C) or transiently (5-HT2B) expressed receptors plated in 24-well culture plates. Transfected cells were loaded with […] overnight in inositol-free DMEM without serum. The next day, phosphate accumulation assays were performed in a modified Krebs-bicarbonate buffer. Kact (nmol/L) and percent Vmax (relative to 5-HT) values were calculated (Roth, B. L., Shoham, M., Choudhary, M., Khan, N. “Identification of Conserved Aromatic Residues Essential for Agonist Binding and Second Messenger Production at 5-Hydroxytryptamine 2A Receptors” Mol. Pharmacol. 1997, 52, 259; Roth, B. L., Choudhary, M., Khan, N., Uluer, A. “High-affinity Agonist Binding is not Sufficient for Agonist Efficacy at 5-Hydroxytryptamine 2A Receptors: Evidence in Favor of a Modified Ternary Complex Model” J. Pharmacol. Exp. Ther. 1997, 280, 576).
(§4) Functional Assay (EC50) in nM. Data represent mean EC50 values for activation of phospho-inositide hydrolysis in cells expressing human 5-HT2A, 5-HT2B or 5-HT2C-INI receptors, relative to serotonin at 100%. When the standard deviation is given, N≧3.

Data set [3] is described as follows: Appetite suppression in mice, acute assay (food consumption). The data set is classed as in vivo. The settings on record: for Mean food consumption 60 min. after injection: g (±SEM) Compound / Mean food consumption 90 min. after injection: g (±SEM) Compound: mice deprived of food 18 hours. The method, then: Mice were deprived of food, but not water, for 18 hours. They were then injected i.p. with test compounds dissolved in 0.9% NaCl containing 1 mg per ml ascorbic acid for protection against oxidation. Each mouse was placed in an individual cage for 30 minutes and then presented with a small petri dish containing a gel made from gelatin, powdered milk and sucrose. The dish was weighed at zero time and at 15-minute intervals for the next hour in order to quantitate food consumption. Controls were injected with saline-ascorbic acid; ±fenfluramine was used as an active control. Control consumption generally ranged from 1.5 to 2.0 grams.

Data set [4] concerns itch-associated scratching induced by serotonin. Briefly: Animal model for OCD: serotonin-induced scratching. The format is in vivo, male Swiss-Webster mice. Conditions: for Number of Scratches as Percentage of Control: inducer Serotonin. Here is the method:
The 5-HT action is at least partly mediated by 5-HT2 receptors in the skin, as shown by blocking with specific antagonists (Yamaguchi, T., Nagasawa, T., Satoh, M., Kuraishi, Y. “Itch-associated Response Induced by Intradermal Serotonin Through 5-HT2 Receptors in Mice” Neurosci. Res. 1999, 35, 77). The effect of test compounds on itch-associated scratching in the mice may indicate their action on 5-HT receptors, and a study was carried out as an animal model for OCD. The subjects were male Swiss-Webster mice, 4-6 weeks old, weighing 25-45 g. Mice were housed 5 per cage, given free access to standard mouse food and water except during experiments, and maintained in a temperature-controlled room (70° F.). Serotonin and all test drugs were made up with ascorbic acid to protect against oxidation. Two mice, one a control, the other experimental, were tested each time. Each mouse was separately placed into a plexiglas box.
Mice were injected subcutaneously between the shoulder blades with either 0.1 ml of serotonin, 0.4 mg per ml in 0.15 M saline plus ascorbic acid, 1 mg/ml, or compound 48-80 (the copolymer product of N-methyl-p-methoxyphenethylamine with formaldehyde), 1.0 mg/ml in saline plus ascorbic acid. Test compounds were injected i.p. 5 minutes before the inducer. The cumulative number of scratches with a hind leg was recorded at 5 minute intervals for 30 minutes. One saline injected control and one test animal were tested together in each assay.

Data set [5] deals with T1, 5-HT2A. The data set is described as follows: Phosphoinositide hydrolysis functional assay. The format is cell-based. Details: expressed in transfected cells. Conditions: for EC50: activation of phosphoinositide hydrolysis, stably expressed receptor; for percent Vmax relative to serotonin at 100%, 5-HT2A: value in brackets. The method, then: as §3, §4
Data set [6] addresses T2, 5-HT2B. The data set is described as follows: Phosphoinositide hydrolysis functional assay. The format is cell-based. More on the design: expressed in transfected cells. Here is the method: as §3, §4
[7] abbreviates: activation of phosphoinositide hydrolysis, transiently expressed receptor.

A word on the Ki: it is a dissociation constant, usually derived from enzyme kinetics or from competition with a known ligand. Higher therefore signals lower affinity. In general, EC50 refers to the concentration that produces a half-maximal response. Higher therefore signals a need for much substance. What is called melting point is the temperature of the solid-liquid transition.

Marks after values point to notes of the source that are not given here.

T1 sequence (P28223 whole entry): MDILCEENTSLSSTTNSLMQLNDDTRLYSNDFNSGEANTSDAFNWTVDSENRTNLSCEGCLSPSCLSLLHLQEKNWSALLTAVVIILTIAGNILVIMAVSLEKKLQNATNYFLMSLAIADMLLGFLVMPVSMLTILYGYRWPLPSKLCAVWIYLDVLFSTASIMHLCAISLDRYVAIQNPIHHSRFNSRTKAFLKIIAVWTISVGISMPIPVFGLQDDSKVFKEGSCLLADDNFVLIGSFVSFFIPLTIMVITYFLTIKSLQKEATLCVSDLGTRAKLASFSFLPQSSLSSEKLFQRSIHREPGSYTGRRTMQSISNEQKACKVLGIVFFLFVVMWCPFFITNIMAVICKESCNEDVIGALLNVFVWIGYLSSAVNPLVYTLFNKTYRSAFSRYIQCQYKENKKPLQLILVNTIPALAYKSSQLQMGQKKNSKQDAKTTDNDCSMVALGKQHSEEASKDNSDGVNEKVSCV

In turn, `CN(C)CCc1cn(C)c2c(F)ccc(O)c12` [Compound O-3804, 3-(2-Dimethylaminoethyl)-7-fluoro-1-methyl-1H-indol-4-ol] yielded a melting point of 134 to 138 °C. This molecule also registered a Ki on 5-HT2A [1] of 68.2 nM. Further, the affinity at 5-HT2B [2] corresponds to a Ki of 3.64 nM. For the same molecule, at 5-HT2C, the inhibition constant (Ki) stood at 25.4 nM. Besides, on human 5-HT2C-INI, the EC50 was found to be 0.517 nM and the Emax was 89.9%. Further, in data set [3] (10 mg/kg i.p.), the “% of Control (food consumption 60 min. after injection)” value is 114%, the “% of Control (food consumption 90 min. after injection)” value was 96%, the “Mean food consumption 60 min. after injection: g (±SEM) Compound” value is recorded as 1.3 (.14) g and the “Mean food consumption 90 min. after injection: g (±SEM) Compound” value is 1.76 (.15) g. In data set [3] (20 mg/kg i.p.), the “% of Control (food consumption 60 min. after injection)” value is listed as 99%, the “% of Control (food consumption 90 min. after injection)” value was 107%, the “Mean food consumption 60 min. after injection: g (±SEM) Compound” value is listed as 1.48 (.19) g and the “Mean food consumption 90 min. after injection: g (±SEM) Compound” value is reported as 1.86 (.20) g. In [3] (30 mg/kg i.p.), the “% of Control (food consumption 60 min. after injection)” value is on record as 56%, the “% of Control (food consumption 90 min. after injection)” value is recorded as 77%, the “Mean food consumption 60 min. after injection: g (±SEM) Compound” value is on record as 0.79 (.09)* g and the “Mean food consumption 90 min. after injection: g (±SEM) Compound” value is listed as 1.37 (.11) g. Moreover, in data set [4] (5 mg/kg i.p. 5 minutes before inducer Serotonin), the “Average Number of Scratches 30 min. after injection” value was determined as 128.4. In data set [4] (5 mg/kg i.p.), the “Number of Scratches as Percentage of Control” value is on record as 34.2%. In addition, the “Average Number of Scratches 30 min. after injection” value in data set [4] (20 mg/kg i.p. 5 minutes before inducer Serotonin) is listed as 12.8*. Besides, in data set [4] (20 mg/kg i.p.), the “Number of Scratches as Percentage of Control” value was 2.2%. Further, on 5-HT2A [5], the concentration for a half-maximal effect (EC50) amounted to 129 ± 1.44 nM and the “percent Vmax relative to serotonin at 100%, 5-HT2A” value was “(125.4% ± 6.225%)”. Further, a half-maximal response at 5-HT2B [6] (setting [7]) (EC50) required 35.4 ± 1.31 nM. The “percent Vmax relative to serotonin at 100%, 5-HT2B” value on 5-HT2B [6] (value in brackets) is given as “(7.0 ± 0.92%)”.
The molecule `CCn1cc(CCN(C)C)c2c(O)ccc(F)c21` [Compound O-3943, 3-(2-Dimethylaminoethyl)-7-fluoro-1-ethyl-1H-indol-4-ol] returned a melting point of 114 to 120 °C. At 5-HT2A [1], this molecule registered a Ki of 97 ± 35 nM. Affinity at 5-HT2B [2] was put at a Ki of 2.5 ± 0.84 nM. Moreover, the Ki at 5-HT2C worked out at 9.1 ± 3.99 nM. At human 5-HT2C-INI, the EC50 came out at 5.4 ± 2.5 nM and the Emax is 100%. The same molecule yielded an EC50 at 5-HT2A [5] of 12.9 nM. This molecule also came in with a half-maximal effective concentration (EC50) at 5-HT2B [6] (setting [7]) of over 10000 nM.
`CCCn1cc(CCN(C)C)c2c(O)ccc(F)c21` [Compound O-3952, 3-(2-Dimethylaminoethyl)-7-fluoro-1-propyl-1H-indol-4-ol] registered a melting point of 75 to 79 °C. In addition, at 5-HT2A [1], the Ki is 492 ± 79.3 nM. Further, on 5-HT2B [2], the inhibition constant (Ki) came out at 2.79 ± 0.31 nM. The molecule also returned an inhibition constant Ki on 5-HT2C of 10.5 ± 2.39 nM. In addition, on human 5-HT2C-INI, the EC50 was determined as 11 ± 4 nM and the Emax was 89%. Moreover, at 5-HT2A [5], the concentration giving a half-maximal response (EC50) came out at 1280 nM and the “percent Vmax relative to serotonin at 100%, 5-HT2A” value was found to be 103% +/− 7. At 5-HT2B [6] (setting [7]), this molecule returned an EC50 of over 10000 nM.
Regarding `CN(C)CCc1cn(CCF)c2c(F)ccc(O)c12` [Compound O-3975, 3-(2-Dimethylaminoethyl)-7-fluoro-1-(2-fluoroethyl)-1H-indol-4-ol], the melting point was in the range of 97 to 101 °C. The molecule also yielded an inhibition constant (Ki) at 5-HT2A [1] of 308 ± 61.4 nM. This molecule registered an inhibition constant (Ki) on 5-HT2B [2] of 2.77 ± 0.31 nM. Further, at 5-HT2C, the inhibitory constant (Ki) was 7.74 ± 0.65 nM. Besides, the EC50 at human 5-HT2C-INI is over 2000 nM. The same molecule displayed an EC50 on 5-HT2A [5] of 614 nM. The EC50 at 5-HT2B [6] (setting [7]) was over 10000 nM.
As for `CN(C)CCc1cn(CC2CC2)c2cc(F)cc(O)c12` [Compound O-4287, 3-(2-Dimethylaminoethyl)-6-fluoro-1-cyclopropylmethyl-1H-indol-4-ol], the melting point lay within 110 to 112 °C. Also, at human 5-HT2C-INI, the EC50 is 1160 nM and the Emax was 41%. Further, on 5-HT2A [5], the response was half-maximal at 3740 nM (EC50) and the “percent Vmax relative to serotonin at 100%, 5-HT2A” value came out at 63%. For the same molecule, the “Functional Assay (EC50) 5-HT2B” value on 5-HT2B [6] (setting [7]) is recorded as “Inactive”.
